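Test compounds were applied to cells in 96-well plates for 48 hours at 5 doses. The concentration for full growth arrest is given as TGI.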
Experiments:
Assay in all cases: NCI anticancer screen, dose series, 48 h
[1] = tested on: 786-0 renal
[2] = tested on: A498 renal
[3] = tested on: A549 NSCLC
[4] = tested on: ACHN renal
[5] = tested on: CAKI-1 renal
[6] = tested on: CCRF-CEM leukemia
[7] = tested on: COLO 205 colon
[8] = tested on: DMS 273 small cell lung
[9] = tested on: EKVX NSCLC
[10] = tested on: HCC-2998 colon
[11] = tested on: HCT-116 colon
[12] = tested on: HCT-15 colon
[13] = tested on: HL-60(TB) leukemia
[14] = tested on: HOP-62 NSCLC
[15] = tested on: HOP-92 NSCLC
[16] = tested on: HT29 colon
[17] = tested on: K-562 leukemia
[18] = tested on: KM12 colon
[19] = tested on: KM20L2 colon
[20] = tested on: LOX IMVI melanoma
[21] = tested on: LXFL 529 NSCLC
[22] = tested on: M14 melanoma
[23] = tested on: M19-MEL melanoma
[24] = tested on: MALME-3M melanoma
[25] = tested on: MOLT-4 leukemia
[26] = tested on: NCI-H23 lung
[27] = tested on: NCI-H460 lung
[28] = tested on: NCI-H522 lung
[29] = tested on: OVCAR-3 ovarian
[30] = tested on: OVCAR-4 ovarian
[31] = tested on: OVCAR-8 ovarian
[32] = tested on: RPMI-8226 leukemia
[33] = tested on: RXF 393 renal
[34] = tested on: SF-268 CNS
[35] = tested on: SF-295 CNS
[36] = tested on: SF-539 CNS
[37] = tested on: SK-MEL-2 melanoma
[38] = tested on: SK-MEL-28 melanoma
[39] = tested on: SN12C renal
[40] = tested on: SNB-19 CNS
[41] = tested on: SNB-78 CNS
[42] = tested on: SR leukemia
[43] = tested on: SW-620 colon
[44] = tested on: TK-10 renal
[45] = tested on: U251 CNS
[46] = tested on: UACC-257 melanoma
[47] = tested on: UO-31 renal
[48] = tested on: DLD-1 colon
[49] = tested on: IGROV1 ovarian
[50] = tested on: NCI-H226 lung
[51] = tested on: OVCAR-5 ovarian
[52] = tested on: SK-MEL-5 melanoma
[53] = tested on: SNB-75 CNS
[54] = tested on: UACC-62 melanoma
[55] = tested on: BT-549 breast
[56] = tested on: DU-145 prostate
[57] = tested on: HS 578T breast
[58] = tested on: MCF7 breast
[59] = tested on: MDA-MB-231 breast
[60] = tested on: MDA-MB-435
[61] = tested on: MDA-N
[62] = tested on: NCI/ADR-RES ovarian
[63] = tested on: PC-3 prostate
[64] = tested on: SK-OV-3 ovarian
[65] = tested on: T-47D breast

COC1OC(CBr)C(OC(=O)c2ccccc2)C(OS(=O)(=O)c2ccc(C)cc2)C1Br (centres undefined)
TGI [1]: > 100 µM
TGI [2]: > 100 µM
TGI [3]: > 100 µM
TGI [4]: > 100 µM
TGI [5]: > 100 µM
TGI [6]: > 100 µM
TGI [7]: > 100 µM
TGI [8]: > 100 µM
TGI [9]: > 100 µM
TGI [10]: > 100 µM
TGI [11]: > 100 µM
TGI [12]: > 100 µM
TGI [13]: > 100 µM
TGI [14]: > 100 µM
TGI [15]: > 100 µM
TGI [16]: > 100 µM
TGI [17]: > 100 µM
TGI [18]: > 100 µM
TGI [19]: > 100 µM
TGI [20]: > 100 µM
TGI [21]: > 100 µM
TGI [22]: > 100 µM
TGI [23]: > 100 µM
TGI [24]: > 100 µM
TGI [25]: > 100 µM
TGI [26]: > 100 µM
TGI [27]: > 100 µM
TGI [28]: > 100 µM
TGI [29]: > 100 µM
TGI [30]: > 100 µM
TGI [31]: > 100 µM
TGI [32]: > 100 µM
TGI [33]: > 100 µM
TGI [34]: > 100 µM
TGI [35]: > 100 µM
TGI [36]: > 100 µM
TGI [37]: > 100 µM
TGI [38]: > 100 µM
TGI [39]: > 100 µM
TGI [40]: > 100 µM
TGI [41]: > 100 µM
TGI [42]: > 100 µM
TGI [43]: > 100 µM
TGI [44]: > 100 µM
TGI [45]: > 100 µM
TGI [46]: > 100 µM
TGI [47]: > 100 µM

COc1ccc(-c2ccccc2)c2[nH]c3c(c12)CCNC3=O
TGI [1]: > 100 µM
TGI [2]: > 100 µM
TGI [3]: > 100 µM
TGI [5]: > 100 µM
TGI [6]: > 100 µM
TGI [7]: > 100 µM
TGI [48]: > 100 µM
TGI [8]: > 100 µM
TGI [9]: > 100 µM
TGI [10]: > 100 µM
TGI [11]: > 100 µM
TGI [12]: > 100 µM
TGI [13]: > 100 µM
TGI [14]: > 100 µM
TGI [15]: > 100 µM
TGI [16]: > 100 µM
TGI [49]: > 100 µM
TGI [17]: > 100 µM
TGI [18]: > 100 µM
TGI [19]: > 100 µM
TGI [20]: > 100 µM
TGI [21]: > 100 µM
TGI [22]: > 100 µM
TGI [23]: > 100 µM
TGI [24]: > 100 µM
TGI [25]: > 100 µM
TGI [50]: > 100 µM
TGI [26]: > 100 µM
TGI [27]: > 100 µM
TGI [28]: > 100 µM
TGI [29]: > 100 µM
TGI [30]: > 100 µM
TGI [51]: > 100 µM
TGI [31]: > 100 µM
TGI [32]: > 100 µM
TGI [33]: > 100 µM
TGI [34]: > 100 µM
TGI [35]: > 100 µM
TGI [36]: > 100 µM
TGI [52]: > 100 µM
TGI [39]: > 100 µM
TGI [40]: > 100 µM
TGI [53]: > 100 µM
TGI [41]: > 100 µM
TGI [42]: > 100 µM
TGI [43]: > 100 µM
TGI [44]: > 100 µM
TGI [45]: > 100 µM
TGI [46]: > 100 µM
TGI [54]: > 100 µM
TGI [47]: > 100 µM

CCN(CC)c1ccc2cc(C(=O)NCc3ccccc3)c(=N)oc2c1
TGI [1]: > 100 µM
TGI [2]: > 100 µM
TGI [3]: > 100 µM
TGI [4]: > 100 µM
TGI [55]: > 100 µM
TGI [5]: > 100 µM
TGI [6]: > 100 µM
TGI [7]: > 59.7 µM
TGI [56]: > 100 µM
TGI [9]: > 100 µM
TGI [10]: > 100 µM
TGI [11]: > 100 µM
TGI [12]: > 100 µM
TGI [13]: > 100 µM
TGI [14]: > 100 µM
TGI [15]: > 100 µM
TGI [57]: > 88 µM
TGI [16]: 36 µM
TGI [49]: > 100 µM
TGI [17]: > 26 µM
TGI [18]: > 100 µM
TGI [20]: > 100 µM
TGI [22]: > 100 µM
TGI [24]: 63.6 µM
TGI [58]: > 100 µM
TGI [59]: 97 µM
TGI [60]: > 100 µM
TGI [61]: > 100 µM
TGI [25]: > 100 µM
TGI [50]: > 100 µM
TGI [26]: 97 µM
TGI [27]: > 100 µM
TGI [28]: 97.3 µM
TGI [62]: > 100 µM
TGI [29]: > 100 µM
TGI [30]: > 100 µM
TGI [51]: > 100 µM
TGI [31]: > 100 µM
TGI [63]: > 100 µM
TGI [32]: > 59.7 µM
TGI [33]: > 100 µM
TGI [34]: > 100 µM
TGI [35]: > 100 µM
TGI [36]: > 100 µM
TGI [37]: > 100 µM
TGI [38]: > 100 µM
TGI [52]: > 100 µM
TGI [64]: > 100 µM
TGI [39]: > 100 µM
TGI [40]: > 100 µM
TGI [53]: > 100 µM
TGI [42]: > 100 µM
TGI [43]: > 100 µM
TGI [65]: > 28.6 µM
TGI [44]: > 100 µM
TGI [45]: > 100 µM
TGI [46]: > 100 µM
TGI [54]: > 100 µM
TGI [47]: 97.3 µM

CC(=O)Nc1ccc(C(=O)NN2C(=O)C(Cl)C2c2cccc([N+](=O)[O-])c2)cc1 (centres undefined)
TGI [3]: > 100 µM
TGI [4]: > 100 µM
TGI [6]: > 100 µM
TGI [7]: > 100 µM
TGI [48]: > 100 µM
TGI [10]: > 100 µM
TGI [11]: > 100 µM
TGI [13]: > 100 µM
TGI [14]: > 100 µM
TGI [15]: > 100 µM
TGI [16]: > 100 µM
TGI [49]: > 100 µM
TGI [17]: > 100 µM
TGI [18]: > 100 µM
TGI [21]: > 100 µM
TGI [23]: > 100 µM
TGI [24]: > 100 µM
TGI [25]: > 100 µM
TGI [50]: > 100 µM
TGI [26]: > 100 µM
TGI [27]: > 100 µM
TGI [28]: > 100 µM
TGI [29]: > 100 µM
TGI [51]: > 100 µM
TGI [31]: > 100 µM
TGI [32]: > 100 µM
TGI [34]: > 100 µM
TGI [35]: > 100 µM
TGI [36]: > 100 µM
TGI [37]: > 100 µM
TGI [38]: > 100 µM
TGI [52]: > 100 µM
TGI [64]: > 100 µM
TGI [40]: > 100 µM
TGI [53]: > 100 µM
TGI [42]: > 100 µM
TGI [43]: > 100 µM
TGI [44]: > 100 µM
TGI [45]: > 100 µM
TGI [46]: > 100 µM
TGI [54]: > 100 µM
TGI [47]: > 100 µM

Source: PubChem BioAssay (NCI)
